Results as given in ChEMBL document CHEMBL1201862, “PubChem BioAssay data set” (2004).
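In this assay, cells in 96-well plates receive the compound at five concentrations for 48 hours. Endpoints are linearly interpolated between the surrounding concentrations. GI50: concentration for 50% inhibition of growth.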 The source made the active and inactive calls. No stated cut-off is given here; in the data, active = GI50 up to about 1.1 µM and inactive = higher.

Legend:
Assay in all cases: NCI-60 cell line screen, 48 h
[1] = system: SK-OV-3
[2] = system: OVCAR-5
[3] = system: UO-31
[4] = system: A498
[5] = system: SK-MEL-2
[6] = system: DMS-114
[7] = system: NCI-H23
[8] = system: U-251
[9] = system: NCI-H226
[10] = system: SNB-19
[11] = system: SW-620
[12] = system: BT-549
[13] = system: OVCAR-4
[14] = system: HOP-92
[15] = system: KM12
[16] = system: UACC-257
[17] = system: HCC 2998
[18] = system: MDA-N
[19] = system: SF-539
[20] = system: HL-60
[21] = system: HCT-15
[22] = system: NCI-H522
[23] = system: OVCAR-3
[24] = system: SK-MEL-5
[25] = system: Hs-578T
[26] = system: LXFL 529
[27] = system: HOP-18
[28] = system: SF-295
[29] = system: KM-20L2
[30] = system: IGROV-1
[31] = system: HOP-62
[32] = system: A549
[33] = system: CCRF-CEM
[34] = system: UACC-62
[35] = system: NCI-H460
[36] = system: RXF 393
[37] = system: EKVX
[38] = system: TK-10
[39] = system: SN12C
[40] = system: OVCAR-8
[41] = system: SNB-75
[42] = system: 786-0
[43] = system: LOX IMVI
[44] = system: SR
[45] = system: MOLT-4
[46] = system: ACHN
[47] = system: DLD-1
[48] = system: SK-MEL-28
[49] = system: MDA-MB-231
[50] = system: MDA-MB-435
[51] = system: PC-3
[52] = system: CAKI-1
[53] = system: MCF7
[54] = system: COLO 205
[55] = system: Malme-3M
[56] = system: DMS-273
[57] = system: XF498
[58] = system: DU-145
[59] = system: HCT-116
[60] = system: RPMI-8226
[61] = system: SF-268
[62] = system: HT-29
[63] = system: K562
[64] = system: T47D
[65] = system: M14
[66] = system: M19-MEL
[67] = system: SNB-78

Which GI50 [1] does the source give for `CC1=C(C(=O)Nc2ccccc2)C(c2ccc(C3C(C(=O)Nc4ccccc4)=C(C)NC(C)=C3C(=O)Nc3ccccc3)cc2)C(C(=O)Nc2ccccc2)=C(C)N1` here?
The GI50 was 13.1 µM (inactive).

And the GI50 [2]?
The GI50 was 7.35 µM (inactive).

And the GI50 [3]?
The GI50 was 9.27 µM (inactive).

What about the GI50 [4] of the same compound?
The GI50 was 8.99 µM (inactive).

And the GI50 [5]?
Its GI50 is 2.07 µM (inactive).

What about the GI50 [6] of the same compound?
The GI50 was 3.83 µM (inactive).

And the GI50 [7]?
The GI50 was 2.86 µM (inactive).

What about the GI50 [8] of the same compound?
Its GI50 is 1.49 µM (inactive).

What about the GI50 [9] of the same compound?
Its GI50 is 3.96 µM (inactive).

What about the GI50 [10] of the same compound?
The GI50 was 6.31 µM (inactive).

And the GI50 [11]?
Its GI50 is 2.11 µM (inactive).

And the GI50 [12]?
Its GI50 is 2.55 µM (inactive).

What about the GI50 [13] of the same compound?
The GI50 was 6.03 µM (inactive).

What about the GI50 [14] of the same compound?
The GI50 was 3.51 µM (inactive).

What about the GI50 [15] of the same compound?
The GI50 was 2.09 µM (inactive).

What about the GI50 [16] of the same compound?
The GI50 was 2.13 µM (inactive).

And the GI50 [17]?
The GI50 was 2.47 µM (inactive).

And the GI50 [18]?
The GI50 was 3.23 µM (inactive).

And the GI50 [19]?
The GI50 was 3.56 µM (inactive).

And the GI50 [20]?
The GI50 was 2.43 µM (inactive).

And the GI50 [21]?
Its GI50 is 2.72 µM.

What about the GI50 [22] of the same compound?
The GI50 was 1.54 µM (inactive).

What about the GI50 [23] of the same compound?
The GI50 was 4.38 µM (inactive).

What about the GI50 [24] of the same compound?
Its GI50 is 2.26 µM (inactive).

What about the GI50 [25] of the same compound?
Its GI50 is 2.88 µM (inactive).

And the GI50 [26]?
The GI50 was 2.1 µM (inactive).

And the GI50 [27]?
The GI50 was 8.22 µM (inactive).

What about the GI50 [28] of the same compound?
Its GI50 is 2.88 µM (inactive).

And the GI50 [29]?
The GI50 was 2.04 µM (inactive).

What about the GI50 [30] of the same compound?
The GI50 was 2.52 µM (inactive).

And the GI50 [31]?
The GI50 was 3.68 µM (inactive).

What about the GI50 [32] of the same compound?
Its GI50 is 8.05 µM (inactive).

What about the GI50 [33] of the same compound?
The GI50 was 1.58 µM (inactive).

And the GI50 [34]?
Its GI50 is 1.67 µM (inactive).

What about the GI50 [35] of the same compound?
The GI50 was 2.67 µM (inactive).

What about the GI50 [36] of the same compound?
The GI50 was 1.91 µM (inactive).

And the GI50 [37]?
Its GI50 is 4.72 µM (inactive).

What about the GI50 [38] of the same compound?
The GI50 was 6.46 µM (inactive).

What about the GI50 [39] of the same compound?
The GI50 was 2.04 µM (inactive).

What about the GI50 [40] of the same compound?
The GI50 was 3.03 µM (inactive).

What about the GI50 [41] of the same compound?
The GI50 was 8.2 µM (inactive).

What about the GI50 [42] of the same compound?
The GI50 was 2.54 µM (inactive).

What about the GI50 [43] of the same compound?
The GI50 was 1.61 µM (inactive).

And the GI50 [44]?
The GI50 was 2.03 µM (inactive).

What about the GI50 [45] of the same compound?
The GI50 was 1.96 µM (inactive).

What about the GI50 [46] of the same compound?
The GI50 was 2.04 µM (inactive).

What about the GI50 [47] of the same compound?
Its GI50 is 2.38 µM (inactive).

What about the GI50 [48] of the same compound?
The GI50 was 1.79 µM (inactive).

And the GI50 [49]?
Its GI50 is 2.8 µM (inactive).

What about the GI50 [50] of the same compound?
The GI50 was 1.86 µM (inactive).

And the GI50 [51]?
Its GI50 is 3.23 µM (inactive).

What about the GI50 [52] of the same compound?
Its GI50 is 4.02 µM (inactive).

And the GI50 [53]?
Its GI50 is 2.86 µM (inactive).

What about the GI50 [54] of the same compound?
The GI50 was 3.21 µM (inactive).

What about the GI50 [55] of the same compound?
Its GI50 is 1.89 µM (inactive).

And the GI50 [56]?
Its GI50 is 2.62 µM (inactive).

And the GI50 [57]?
Its GI50 is 7.36 µM (inactive).

What about the GI50 [58] of the same compound?
The GI50 was > 10 µM (inactive).

And the GI50 [59]?
Its GI50 is 2 µM (inactive).

And the GI50 [60]?
The GI50 was 2.61 µM (inactive).

What about the GI50 [61] of the same compound?
Its GI50 is 2.2 µM (inactive).

What about the GI50 [62] of the same compound?
The GI50 was 1.85 µM (inactive).

And the GI50 [63]?
The GI50 was 2.67 µM (inactive).

And the GI50 [64]?
The GI50 was 2.7 µM (inactive).

What about the GI50 [65] of the same compound?
Its GI50 is 2.5 µM (inactive).

What about the GI50 [66] of the same compound?
The GI50 was 3.5 µM (inactive).

For `COc1ccc2c(c1)CCCC1C3=NCCC3(C)CSC21` (stereo not drawn), which GI50 [1] is on record?
Its GI50 is > 100 µM (inactive).

What about the GI50 [6] of the same compound?
Its GI50 is 37.8 µM (inactive).

What about the GI50 [7] of the same compound?
Its GI50 is 47.3 µM (inactive).

What about the GI50 [8] of the same compound?
Its GI50 is 74.5 µM (inactive).

What about the GI50 [10] of the same compound?
The GI50 was > 100 µM (inactive).

And the GI50 [11]?
Its GI50 is > 100 µM (inactive).

And the GI50 [13]?
Its GI50 is > 100 µM (inactive).

What about the GI50 [15] of the same compound?
Its GI50 is > 100 µM (inactive).

And the GI50 [19]?
The GI50 was 51.6 µM (inactive).

And the GI50 [20]?
The GI50 was 17.1 µM (inactive).

What about the GI50 [22] of the same compound?
The GI50 was 86.9 µM (inactive).

What about the GI50 [23] of the same compound?
The GI50 was 97.3 µM (inactive).

And the GI50 [24]?
The GI50 was 42.8 µM (inactive).

And the GI50 [26]?
The GI50 was 58.5 µM (inactive).

And the GI50 [27]?
The GI50 was 80.4 µM (inactive).

And the GI50 [28]?
The GI50 was 86.9 µM (inactive).

What about the GI50 [29] of the same compound?
Its GI50 is 22.8 µM (inactive).

What about the GI50 [30] of the same compound?
The GI50 was > 100 µM (inactive).

And the GI50 [32]?
Its GI50 is > 100 µM (inactive).

And the GI50 [33]?
Its GI50 is 70.3 µM (inactive).

And the GI50 [34]?
The GI50 was 55 µM (inactive).

And the GI50 [35]?
Its GI50 is 74 µM (inactive).

And the GI50 [36]?
Its GI50 is 95.5 µM (inactive).

And the GI50 [38]?
The GI50 was 70.8 µM (inactive).

And the GI50 [39]?
Its GI50 is > 100 µM (inactive).

And the GI50 [40]?
The GI50 was 59.7 µM (inactive).

And the GI50 [67]?
Its GI50 is > 100 µM (inactive).

And the GI50 [41]?
Its GI50 is 67.8 µM (inactive).

And the GI50 [42]?
The GI50 was 70.3 µM (inactive).

What about the GI50 [43] of the same compound?
Its GI50 is 30.2 µM (inactive).

What about the GI50 [45] of the same compound?
The GI50 was 32.6 µM (inactive).

And the GI50 [48]?
The GI50 was 36.2 µM (inactive).

And the GI50 [54]?
Its GI50 is 52.6 µM (inactive).

What about the GI50 [56] of the same compound?
Its GI50 is 36.6 µM (inactive).

What about the GI50 [57] of the same compound?
Its GI50 is > 100 µM (inactive).

And the GI50 [59]?
Its GI50 is 37.5 µM (inactive).

And the GI50 [60]?
Its GI50 is 55.8 µM (inactive).

And the GI50 [61]?
The GI50 was > 100 µM (inactive).

What about the GI50 [62] of the same compound?
Its GI50 is 32.4 µM (inactive).

What about the GI50 [63] of the same compound?
The GI50 was 31 µM (inactive).

And the GI50 [65]?
The GI50 was 37.4 µM (inactive).

And the GI50 [66]?
Its GI50 is 72.1 µM (inactive).
